Source: ChEMBL document CHEMBL4813957, “Antitubercular properties of thiazolidin-4-ones - A review” (Eur J Med Chem, 2021)
In brackets after ≈: the same amount, converted by molar mass.

System: Mycobacterium tuberculosis variant bovis
Experiment: Antimycobacterial activity against Mycobacterium bovis BCG ATCC 35743 measured on 8th to 12th day by nitrate reductase assay
Format: functional
Conditions: BCG str. ATCC 35743, time 8-12 day

Which IC90 does the source give for `Cc1cc(NS(=O)(=O)c2ccc(N3C(=O)CSC3c3c(F)cccc3F)cc2)no1` (stereo not given) here?
Its IC90 is 0.058 µg/mL (≈ 0.128 µM).

How did the IC90 turn out when `Cc1cc(NS(=O)(=O)c2ccc(N3C(=O)CSC3c3ccc(Cl)cc3)cc2)no1` (stereo not given) was run?
Its IC90 is 0.058 µg/mL (≈ 0.129 µM).

Which IC90 does the source give for `Cc1cc(NS(=O)(=O)c2ccc(N3C(=O)CSC3c3ccc(C(F)(F)F)cc3)cc2)no1` (stereo not given) here?
The IC90 was 0.058 µg/mL (≈ 0.12 µM).

How did the IC90 turn out when `Cc1cc(NS(=O)(=O)c2ccc(N3C(=O)CSC3c3c(Cl)cccc3Cl)cc2)no1` (stereo not given) was run?
Its IC90 is 0.058 µg/mL (≈ 0.12 µM).

`Cc1cc(NS(=O)(=O)c2ccc(N3C(=O)CSC3c3ccc(F)cc3)cc2)no1` (stereo not given) was tested. Which IC90 did it give?
The IC90 was 0.058 µg/mL (≈ 0.134 µM).
